Read-outs that look alike come from different tables or passages of the source.
Columns and labels:
normal hiPSC-CMs = assay: Impedance beating recordings (cell index, beat rate, amplitude), normal hiPSC-CMs; type: cell-based, human
Experimental: HiPSCs derived from healthy controls (Cat: NC20010002; Lot.HJ210577NC22), or patients (Cat. NC20300002; Lot. CP210578NC04) diagnosed with LQT syndrome was maintained in HELP4004 (HELP, Nanjing, China) medium on Matrigel-coated (BD Bio science, San Jose, CA, USA) plates at 37 °C; with 5% CO2 (v/v).
The cardiomyocytes were seeded on Nanion CardioExcyte 96 Sensor Plates (NSP-96, Nanion Technologies, Munich, Germany) after 0.1% gelatin coating for 1 h. The initial volume was 200 μL per well and contained approximately […]. After seeding, the NSP-96 and CardioExcyte 96 were returned to the incubator. All cells were replaced with fresh medium 200 μL per well every 48 h and tested after 168 h. Cellular index, beat rate, base impedance and beat amplitude were monitored in this experiment.
(§1) Isoproterenol, nifedipine, and AC were purchased from Sigma-Aldrich, which were resolved in DMSO (Sigma-Aldrich, D2650). Drug compounds final concentration were AC (0.05, 0.5,5 μM), nifedipine (1 μM), isoproterenol (3 μM), respectively. Dilutions were prepared within 60 min of treatment. All the compound solutions were subjected to regular 10 min ultrasound and oscillations to ensure that compounds were completely dissolved. Equal amounts of DMSO (0.1%) were used as the vehicle controls.

LQTS hiPSC-CMs = assay: Whole-cell current-clamp action potential recording, LQTS hiPSC-CMs; type: cell-based, human; details: LQTS hiPSC-CMs, 0.05, 0.5 and 5 μM, 1 Hz stimulation
Description: (§2) Standard patch-clamp techniques were used to record action potentials, and L-type calcium currents. Composition of intracellular fluid and extracellular fluid were shown in Table 7 and Table 8, respectively. The signal was amplified using an HEKA EPC-10 patch-clamp amplifier (HEKA, Electronics, Ludwigshafen, Germany) and low-pass filtered at 5 kHz. Patch pipettes were fabricated from glass capillaries using a Sutter P-97 microelectrode puller (Novato, CA, USA) and the tips were heat polished with a microforge (NARISHIGE MF-900) to gain a resistance of 2–5 MΩ. Data acquisition was achieved using HEKA Patchmaster (V2x73.2). Data analysis and fit were performed using Clamfit and Graphpad Prism 6.0. The experiment was conducted at 37 °C. One cell can test one or more drugs, or multiple concentrations of the same drug but needs to be rinsed with extracellular fluid between each test. Nifedipine (Sigma) was used as a positive control to ensure cell quality. External solution containing 0.1% DMSO was applied as vehicle to establish the baseline. Recording was done at a temperature-controlled room of 35–37 degrees Celsius.
Isoproterenol, nifedipine, and AC were purchased from Sigma-Aldrich, which were resolved in DMSO (Sigma-Aldrich, D2650). Drug compounds final concentration were AC (0.05, 0.5,5 μM), nifedipine (1 μM), isoproterenol (3 μM), respectively. […]

LQT syndrome hiPSC-CMs = assay: Ca2+ imaging of calcium transients, LQT syndrome hiPSC-CMs; type: cell-based, human; details: cardiomyocytes of LQTS, 5 μM
Experimental: Dissociated day 30–33 post-differentiation hiPSC-CMs (healthy and LQT specific patient) were reseeded Matrigel-coated plate in HELP4004 (HELP) and were treated with 5 μM Fluo-3 AM and 0.02% Pluronic (Life Technologies) in DMEM/F12 (Gibco) for 60 min at 37 °C. Cells were washed with DMEM/F12 without fluorochrome solution afterwards for 30 min, replaced the solution with Tyrode’s solution. Ca^2+ imaging was conducted using Olympus IX71 confocal microscope (Olympus IX71, Tokyo, Japan) and analyzed using Olympus imaging software. Ca^2+ spontaneous transients were obtained using a single cell line scan mode at 37 °C.
as §1

[1] = target: T1, L-type calcium current (ICa,L) in LQTS hiPSC-CMs (Homo sapiens, UniProt Q13936); assay: Patch-clamp L-type calcium current, LQTS hiPSC-CMs; type: cell-based
T1 construct: endogenous in cells; host or cells: LQTS patient-derived hiPSC cardiomyocytes
T1 sequence (Q13936 whole entry): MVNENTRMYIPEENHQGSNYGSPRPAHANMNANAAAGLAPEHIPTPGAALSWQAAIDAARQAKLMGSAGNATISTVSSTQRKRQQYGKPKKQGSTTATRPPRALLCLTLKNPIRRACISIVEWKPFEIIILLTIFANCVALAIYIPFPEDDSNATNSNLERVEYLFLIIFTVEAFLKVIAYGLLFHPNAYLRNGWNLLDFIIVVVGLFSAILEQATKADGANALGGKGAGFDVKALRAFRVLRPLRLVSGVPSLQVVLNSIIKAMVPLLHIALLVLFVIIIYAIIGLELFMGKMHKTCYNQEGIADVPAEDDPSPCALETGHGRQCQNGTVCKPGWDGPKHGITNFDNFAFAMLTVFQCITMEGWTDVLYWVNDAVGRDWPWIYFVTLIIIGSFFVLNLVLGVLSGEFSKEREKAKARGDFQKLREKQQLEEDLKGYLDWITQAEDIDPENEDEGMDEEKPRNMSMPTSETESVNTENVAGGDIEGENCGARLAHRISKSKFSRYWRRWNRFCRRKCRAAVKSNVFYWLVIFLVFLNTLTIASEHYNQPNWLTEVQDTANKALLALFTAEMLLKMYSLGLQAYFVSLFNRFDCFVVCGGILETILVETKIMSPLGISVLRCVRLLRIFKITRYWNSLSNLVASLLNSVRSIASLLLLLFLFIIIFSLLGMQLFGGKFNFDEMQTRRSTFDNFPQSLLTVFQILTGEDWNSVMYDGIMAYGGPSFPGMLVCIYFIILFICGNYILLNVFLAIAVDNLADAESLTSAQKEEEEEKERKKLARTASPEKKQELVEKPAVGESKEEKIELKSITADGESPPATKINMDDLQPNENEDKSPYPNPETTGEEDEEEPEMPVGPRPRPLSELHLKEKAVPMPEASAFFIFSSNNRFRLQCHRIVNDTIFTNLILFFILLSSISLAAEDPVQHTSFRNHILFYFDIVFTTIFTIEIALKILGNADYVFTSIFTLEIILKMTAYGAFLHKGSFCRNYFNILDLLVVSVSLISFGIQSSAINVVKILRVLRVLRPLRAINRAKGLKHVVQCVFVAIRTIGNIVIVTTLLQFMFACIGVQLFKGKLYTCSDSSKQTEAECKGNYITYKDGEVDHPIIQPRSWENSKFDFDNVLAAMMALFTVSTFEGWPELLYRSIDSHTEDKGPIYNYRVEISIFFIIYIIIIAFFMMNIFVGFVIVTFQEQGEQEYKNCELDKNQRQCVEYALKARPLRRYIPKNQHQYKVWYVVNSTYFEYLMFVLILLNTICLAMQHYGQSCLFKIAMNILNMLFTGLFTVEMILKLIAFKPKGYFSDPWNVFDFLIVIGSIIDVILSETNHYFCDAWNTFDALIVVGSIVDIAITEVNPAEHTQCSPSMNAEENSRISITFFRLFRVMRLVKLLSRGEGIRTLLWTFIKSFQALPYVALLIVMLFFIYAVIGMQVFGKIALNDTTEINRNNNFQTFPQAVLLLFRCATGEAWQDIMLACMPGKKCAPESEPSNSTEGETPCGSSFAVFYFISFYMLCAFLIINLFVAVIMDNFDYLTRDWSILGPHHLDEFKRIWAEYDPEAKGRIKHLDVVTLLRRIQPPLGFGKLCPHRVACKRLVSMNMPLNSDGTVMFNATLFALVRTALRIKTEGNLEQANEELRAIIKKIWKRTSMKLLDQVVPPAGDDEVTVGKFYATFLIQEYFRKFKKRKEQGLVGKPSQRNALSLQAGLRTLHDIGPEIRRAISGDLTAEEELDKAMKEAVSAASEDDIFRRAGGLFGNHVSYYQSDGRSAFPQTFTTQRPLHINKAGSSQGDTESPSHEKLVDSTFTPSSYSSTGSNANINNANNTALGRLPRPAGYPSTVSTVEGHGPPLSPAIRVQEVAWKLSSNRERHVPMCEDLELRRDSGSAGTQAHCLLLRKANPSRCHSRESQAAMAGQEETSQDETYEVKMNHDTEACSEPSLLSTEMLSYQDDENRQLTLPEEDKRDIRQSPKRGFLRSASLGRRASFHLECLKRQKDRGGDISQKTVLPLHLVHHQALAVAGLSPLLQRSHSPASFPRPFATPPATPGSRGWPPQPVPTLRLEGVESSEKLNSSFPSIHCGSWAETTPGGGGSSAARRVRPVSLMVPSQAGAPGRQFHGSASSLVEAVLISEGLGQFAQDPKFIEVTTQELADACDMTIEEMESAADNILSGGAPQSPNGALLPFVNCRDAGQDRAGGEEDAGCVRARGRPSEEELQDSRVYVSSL
T1 sequence (Q08289 whole entry partner): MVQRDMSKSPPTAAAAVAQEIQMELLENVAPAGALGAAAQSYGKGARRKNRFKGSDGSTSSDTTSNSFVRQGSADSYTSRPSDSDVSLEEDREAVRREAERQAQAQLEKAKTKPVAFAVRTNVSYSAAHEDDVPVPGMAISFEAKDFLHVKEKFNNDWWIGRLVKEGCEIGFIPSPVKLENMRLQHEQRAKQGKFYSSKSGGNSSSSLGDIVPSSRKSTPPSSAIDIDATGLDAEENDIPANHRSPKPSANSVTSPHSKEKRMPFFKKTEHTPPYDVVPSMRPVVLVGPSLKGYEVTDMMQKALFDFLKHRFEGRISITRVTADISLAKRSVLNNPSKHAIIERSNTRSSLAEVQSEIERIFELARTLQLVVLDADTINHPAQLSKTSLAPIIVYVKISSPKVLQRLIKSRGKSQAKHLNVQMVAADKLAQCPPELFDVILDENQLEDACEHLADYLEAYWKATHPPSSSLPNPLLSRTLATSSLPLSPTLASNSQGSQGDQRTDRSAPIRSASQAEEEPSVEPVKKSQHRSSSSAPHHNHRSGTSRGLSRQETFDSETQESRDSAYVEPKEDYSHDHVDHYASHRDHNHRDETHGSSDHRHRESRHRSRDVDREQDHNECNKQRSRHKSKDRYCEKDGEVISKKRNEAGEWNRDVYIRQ
T1 sequence (P54289 25-956 partner limits assumed): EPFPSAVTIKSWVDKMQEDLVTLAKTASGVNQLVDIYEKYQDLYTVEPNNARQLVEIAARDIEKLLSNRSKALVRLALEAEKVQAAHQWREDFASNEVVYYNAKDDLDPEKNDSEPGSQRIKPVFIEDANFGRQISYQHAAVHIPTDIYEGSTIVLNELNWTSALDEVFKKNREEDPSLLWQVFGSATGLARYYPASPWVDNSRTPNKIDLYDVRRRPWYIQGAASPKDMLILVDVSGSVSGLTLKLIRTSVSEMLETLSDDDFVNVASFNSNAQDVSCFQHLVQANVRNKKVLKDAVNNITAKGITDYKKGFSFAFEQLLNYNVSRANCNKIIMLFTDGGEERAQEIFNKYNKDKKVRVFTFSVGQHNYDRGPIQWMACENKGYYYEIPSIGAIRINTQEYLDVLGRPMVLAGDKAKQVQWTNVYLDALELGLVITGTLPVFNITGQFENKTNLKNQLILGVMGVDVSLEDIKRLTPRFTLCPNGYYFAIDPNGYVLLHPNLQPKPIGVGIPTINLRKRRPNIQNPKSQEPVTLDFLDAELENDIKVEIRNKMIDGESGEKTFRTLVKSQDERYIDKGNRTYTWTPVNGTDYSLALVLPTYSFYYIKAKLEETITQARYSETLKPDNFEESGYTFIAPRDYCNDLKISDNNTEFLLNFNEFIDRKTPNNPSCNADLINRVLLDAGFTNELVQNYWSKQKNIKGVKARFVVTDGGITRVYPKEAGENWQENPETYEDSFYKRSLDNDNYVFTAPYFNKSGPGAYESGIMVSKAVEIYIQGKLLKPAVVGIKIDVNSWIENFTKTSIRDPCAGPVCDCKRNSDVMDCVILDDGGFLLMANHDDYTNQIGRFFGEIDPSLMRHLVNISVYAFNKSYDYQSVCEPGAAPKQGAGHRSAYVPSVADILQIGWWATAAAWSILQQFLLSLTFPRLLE
T1 sequence (P54289 957-1103 partner limits assumed): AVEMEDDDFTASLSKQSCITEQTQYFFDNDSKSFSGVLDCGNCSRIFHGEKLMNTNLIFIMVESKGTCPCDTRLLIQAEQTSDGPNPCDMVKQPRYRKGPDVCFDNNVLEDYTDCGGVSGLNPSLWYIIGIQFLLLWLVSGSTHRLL
Description: as §2, §1

rats = details: cited from earlier work

## CCN1C[C@]2(COC)[C@H](O)C[C@H](OC)[C@@]34[C@@H]5C[C@@]6(O)[C@H](OC(=O)c7ccccc7)[C@@H]5[C@@](OC(C)=O)([C@@H]([C@H](OC)[C@H]23)[C@@H]14)[C@@H](O)[C@@H]6OC [AC, aconitine]
Normal hiPSC-CMs; normal hiPSC-CMs
  amplitude: concentration-dependently decreased
  cell index: no significant effect
Normal hiPSC-CMs; normal hiPSC-CMs, 0.5 μM
  cell beat rate: faster after 12 h
  cell contractility: decreased cell contractility
  cell frequency: increased cell frequency
Normal hiPSC-CMs; normal hiPSC-CMs, 5 μM, very weak within 6 h after treatment
  cell contractility: significantly reduced
Normal hiPSC-CMs; normal hiPSC-CMs, 0.05, 0.5 and 5 μM, 48 h observation period
  cardiomyocyte death: None of the three concentrations (0.05, 0.5, and 5 μM) AC caused cardiomyocyte death
Normal hiPSC-CMs; normal hiPSC-CMs, versus control group, concentration not given
  contraction force: slightly lower
LQTS hiPSC-CMs
  APD50: concentration-dependently shortened
LQT syndrome hiPSC-CMs
  frequency of calcium transient: significantly increase
[1]; LQT group, 0.05–5 μM
  peak value of L-type calcium current: significantly decreased
[1]; LQT hiPSC-CMs, tested 0.05–5 μM, no concentration dependence, read-out: IC50, inhibition of L-type calcium current
  IC50: > 5 µM
[1]; LQTS hiPSC-CMs, estimated beyond tested range 0.05–5 μM, read-out: IC50 (eIC50) on ICa,L
  IC50: 27.2 µM
rats; oral 0.4 mg/kg
  toxic cardiovascular effects: arrhythmia, lower heart rate, and blood pressure, were observed
rats; oral low-dose 0.1 mg/kg
  toxic cardiovascular effects: not found
